Test system: NCI-H446 xenograft
Settings: 40 mg/kg, I.P. QD for 28 days

% of body weight loss (Day 29): −5.29%
Compound: CCc1c2c(nc3ccc(OC(=O)N4CCC(N5CCCCC5)CC4)cc13)-c1cc3c(c(=O)n1C2)COC(=O)[C@]3(O)CC [Irinotecan, irinotecan]

Reference: patent US20250281621A1, “GPC3 APTAMERS AND VARIANTS AND USE THEREOF” (Guardian Therapeutics, LLC, priority 2020, published 2025)
